Consider 27 molecules from patent US12071425B2 (Genentech, Inc., priority 2018, dated 2024).

Counter-ions that a name gives are not always drawn.

kinase domain of IRE1 alpha (His-tagged kinase dead construct KR, AA G547-L977, D688N), sequence (O75460 547-977 D688N): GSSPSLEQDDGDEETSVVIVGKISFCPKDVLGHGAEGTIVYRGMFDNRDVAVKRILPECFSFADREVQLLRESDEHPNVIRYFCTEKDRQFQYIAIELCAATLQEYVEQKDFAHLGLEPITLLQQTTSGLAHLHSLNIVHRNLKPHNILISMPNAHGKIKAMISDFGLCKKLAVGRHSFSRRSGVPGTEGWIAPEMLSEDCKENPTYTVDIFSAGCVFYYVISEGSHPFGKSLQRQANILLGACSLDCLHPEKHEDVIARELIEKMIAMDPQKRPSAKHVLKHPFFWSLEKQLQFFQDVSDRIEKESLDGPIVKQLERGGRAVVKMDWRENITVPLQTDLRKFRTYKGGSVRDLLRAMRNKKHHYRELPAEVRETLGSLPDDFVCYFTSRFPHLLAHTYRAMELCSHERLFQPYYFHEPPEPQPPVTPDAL

This experiment addresses kinase domain of IRE1 alpha (His-tagged kinase dead construct KR, AA G547-L977, D688N) (Homo sapiens (Human), UniProt O75460, D688N). Nature of the experiment: IRE1α TR-FRET competition binding assay. As to conditions: competition with Kinase Tracer 236, 0.1 μM; one hour at room temperature. In outline:
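Sf9-expressed kinase-dead KR construct (0.006 μM final) pre-incubated 1 h at 4° C with Eu anti-His antibody (0.002 μM) in HEPES pH 7.5/MgCl2/Brij/DTT buffer; Kinase Tracer 236 (ATP-competitive probe, 0.1 μM final) added with compound. 1 h at room temperature; tracer displacement read by TR-FRET (665/615 nm).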
(In TR-FRET formats the signal depends on donor and acceptor labels being close together.)
A word on the IC50: it is the concentration at which inhibition is half-maximal. Low values mean inhibition by little substance, high ones a need for much substance. As to `N#Cc1cccc(S(=O)(=O)Nc2ccc(Oc3ncccc3-c3ccnc(N[C@H]4CCCNC4)n3)c(F)c2F)c1` [Compound 220, (S)-3-cyano-N-(2,3-difluoro-4-((3-(2-(piperidin-3-ylamino)pyrimidin-4-yl)pyridin-2-yl)oxy)phenyl)benzenesulfonamide], the IC50 worked out at 19 nM.

`O=C(Nc1ccc(Oc2ncccc2-c2ccnc(N[C@H]3CCCNC3)n2)c(F)c1F)C1CC12CC2` (single isomer, unassigned) [Compound 150, hydrochloride] gave an IC50 of 300 nM.

`Cc1cc(NS(=O)(=O)c2ccccc2Cl)cc(F)c1Oc1ncccc1-c1ccnc(N[C@H]2CCCNC2)n1` [Compound 114, (S)-2-chloro-N-(3-fluoro-5-methyl-4-((3-(2-(piperidin-3-ylamino)pyrimidin-4-yl)pyridin-2-yl)oxy)phenyl)benzenesulfonamide hydrochloride] returned an IC50 of 7.3 nM.

Take `COc1cccc(CS(=O)(=O)Nc2c(F)cc(Oc3ncccc3-c3ccnc(N[C@@H]4CNC[C@@H](F)C4)n3)c(F)c2F)c1` [Compound 385, 1-(3-Methoxyphenyl)-N-(2,3,6-trifluoro-4-((3-(2-(((3S,5S)-5-fluoropiperidin-3-yl)amino)pyrimidin-4-yl)pyridin-2-yl)oxy)phenyl)methanesulfonamide]: the IC50 stood at 0.2 nM.

Regarding `O=S(=O)(Cc1cc(F)ccc1F)Nc1c(F)cc(Oc2ncccc2-c2ccnc(N[C@@H]3CNC[C@@H](F)C3)n2)c(F)c1F` [Compound 378, 1-(2,5-Difluorophenyl)-N-(2,3,6-trifluoro-4-((3-(2-(((3S,5S)-5-fluoropiperidin-3-yl)amino)pyrimidin-4-yl)pyridin-2-yl)oxy)phenyl)methanesulfonamide], the IC50 worked out at 1.1 nM.

For `N#Cc1cc(F)ccc1CS(=O)(=O)Nc1c(F)cc(Oc2ncccc2-c2ccnc(N[C@@H]3CNC[C@@H](F)C3)n2)c(F)c1F` [Compound 357, 1-(2-Cyano-4-fluoro-phenyl)-N-[2,3,6-trifluoro-4-[[3-[2-[[(3S,5S)-5-fluoro-3-piperidyl]amino]pyrimidin-4-yl]-2-pyridyl]oxy]phenyl]methanesulfonamide], the IC50 is 1 nM.

`O=S(=O)(Cc1ccc(Cl)cc1)Nc1ccc(Oc2ncccc2-c2ccnc(N[C@H]3CCCNC3)n2)c(F)c1F` [Compound 213, (S)-1-(4-chlorophenyl)-N-(2,3-difluoro-4-((3-(2-(piperidin-3-ylamino)pyrimidin-4-yl)pyridin-2-yl)oxy)phenyl)methanesulfonamide]: the concentration for half-maximal inhibition (IC50) came to 5.9 nM.

Molecule `O=S(=O)(Cc1ccncc1)Nc1c(F)cc(Oc2ncccc2-c2ccnc(N[C@@H]3CNC[C@@H](F)C3)n2)c(F)c1F` [Compound 359] returned a concentration for half-maximal inhibition (IC50) of 0.3 nM.

`Cc1c(NS(=O)(=O)c2ccccc2Cl)cccc1Oc1ncccc1-c1ccnc(N[C@H]2CCCNC2)n1` [Compound 139, (S)-2-Chloro-N-(2-methyl-3-((3-(2-(piperidin-3-ylamino)pyrimidin-4-yl)pyridin-2-yl)oxy)phenyl)benzenesulfonamide hydrochloride] returned an IC50 of 46 nM.

For `O=S(=O)(CCC(F)(F)F)Nc1c(F)cc(Oc2ncccc2-c2ccnc(N[C@@H]3CNC[C@@H](F)C3)n2)c(F)c1F` [Compound 205, 3,3,3-trifluoro-N-(2,3,6-trifluoro-4-((3-(2-(((3S,5S)-5-fluoro-3-piperidyl)amino)pyrimidin-4-yl)-2-pyridyl)oxy)phenyl)propane-1-sulfonamide], the IC50 was determined as 4.4 nM.

With `O=S(=O)(Cc1ccccc1F)Nc1cc(Cl)c(Oc2ncccc2-c2ccnc(N[C@@H]3CNC[C@@H](F)C3)n2)c(F)c1F` [Compound 340, N-(5-Chloro-2,3-difluoro-4-((3-(2-(((3S,5S)-5-fluoropiperidin-3-yl)amino)pyrimidin-4-yl)pyridin-2-yl)oxy)phenyl)-1-(2-fluorophenyl)methanesulfonamide], the IC50 turned out to be 7.5 nM.

Molecule `CN(C)C1CCC(Nc2nccc(-c3cccnc3Oc3cc(F)c(NS(=O)(=O)Cc4ccccc4)c(F)c3F)n2)CC1F` (single isomer, unassigned) [Compound 307, N-(4-((3-(2-((4-(Dimethylamino)-3-fluorocyclohexyl)amino)pyrimidin-4-yl)pyridin-2-yl)oxy)-2,3,6-trifluorophenyl)-1-phenylmethanesulfonamide hydrochloride] had an IC50 of 0.31 nM.

Molecule `Cc1c(Oc2ncccc2-c2ccnc(N[C@H]3CCCNC3)n2)cc(F)c(NS(=O)(=O)Cc2ccccc2)c1F` [Compound 154, (S)-N-(2,6-difluoro-3-methyl-4-(3-(2-(piperidin-3-ylamino)pyrimidin-4-yl)pyridin-2-yloxy)phenyl)(phenyl)methanesulfonamide hydrochloride] gave an IC50 of 3.8 nM.

Regarding `NCCNc1nccc(-c2cccnc2Oc2ccc(NS(=O)(=O)Cc3ccccc3)c(F)c2F)n1` [Compound 171, N-(4-((3-(2-((2-aminoethyl)amino)pyrimidin-4-yl)pyridin-2-yl)oxy)-2,3-difluorophenyl)-1-phenylmethanesulfonamide], the IC50 came out at 180 nM.

The molecule `CN1CCC[C@H](Nc2nccc(-c3cccnc3Oc3ccc(NS(=O)(=O)Cc4ccccc4)c(F)c3F)n2)C1` [Compound 170, (S)-N-(2,3-difluoro-4-((3-(2-((1-methylpiperidin-3-yl)amino)pyrimidin-4-yl)pyridin-2-yl)oxy)phenyl)-1-phenylmethanesulfonamide] gave an IC50 of 11 nM.

`Cc1cc(NS(=O)(=O)Cc2ccccc2)c(F)cc1Oc1ncccc1-c1ccnc(N[C@H]2CCCNC2)n1` [Compound 158, (S)-N-(2-fluoro-5-methyl-4-(3-(2-(piperidin-3-ylamino)pyrimidin-4-yl)pyridin-2-yloxy)phenyl)(phenyl)methanesulfonamide] returned an IC50 of 5.1 nM.

Molecule `O=S(=O)(Nc1c(F)cc(Oc2ncccc2-c2ccnc(N[C@@H]3CNC[C@@H](F)C3)n2)c(F)c1F)N1CCCCC1` [Compound 263, N-(2,3,6-Trifluoro-4-((3-(2-(((3S,5S)-5-fluoropiperidin-3-yl)amino)pyrimidin-4-yl)pyridin-2-yl)oxy)phenyl)piperidine-1-sulfonamide] had an IC50 of 1.5 nM.

On to `N#Cc1c(NS(=O)(=O)Cc2ccccc2)ccc(Oc2ncccc2-c2ccnc(N[C@H]3CCCNC3)n2)c1F` [Compound 163, (S)-N-(2-cyano-3-fluoro-4-((3-(2-(piperidin-3-ylamino)pyrimidin-4-yl)pyridin-2-yl)oxy)phenyl)-1-phenylmethanesulfonamide hydrochloride], for which the IC50 is 6.6 nM.

The molecule `N[C@H]1CC[C@H](Nc2nccc(-c3cccnc3Oc3ccc(NS(=O)(=O)Cc4ccccc4)c(F)c3F)n2)CC1` [Compound 169, N-(4-((3-(2-(((1r,4r)-4-Aminocyclohexyl)amino)pyrimidin-4-yl)pyridin-2-yl)oxy)-2,3-difluorophenyl)-1-phenylmethanesulfonamide] showed a 50% inhibitory concentration (IC50) of 4.1 nM.

Molecule `O=S(=O)(CC1CCC1(F)F)Nc1c(F)cc(Oc2ncccc2-c2ccnc(N[C@@H]3CNC[C@@H](F)C3)n2)c(F)c1F` (single isomer, unassigned) [Compound 265] showed an IC50 of 1.4 nM.

In turn, `O=S(=O)(Nc1ccc(F)c(Oc2ncccc2-c2ccnc(N[C@H]3CCCNC3)n2)c1)c1ccccc1Cl` [Compound 128, (S)-2-Chloro-N-(4-fluoro-3-((3-(2-(piperidin-3-ylamino)pyrimidin-4-yl)pyridin-2-yl)oxy)phenyl)benzenesulfonamide] yielded an IC50 of 11 nM.

For `O=S(=O)(CC1CC2(CCC2)C1)Nc1ccc(Oc2ncccc2-c2ccnc(N[C@H]3CCCNC3)n2)c(F)c1F` [Compound 209, (S)-N-(2,3-difluoro-4-((3-(2-(piperidin-3-ylamino)pyrimidin-4-yl)pyridin-2-yl)oxy)phenyl)-1-(spiro[3.3]heptan-2-yl)methanesulfonamide], the IC50 came out at 7.5 nM.

In turn, `CC(C)(CC#N)CS(=O)(=O)Nc1ccc(Oc2ncccc2-c2ccnc(N[C@H]3CCCNC3)n2)c(F)c1F` [Compound 216, (S)-3-cyano-N-(2,3-difluoro-4-((3-(2-(piperidin-3-ylamino)pyrimidin-4-yl)pyridin-2-yl)oxy)phenyl)-2,2-dimethylpropane-1-sulfonamide] had an IC50 of 13 nM.

In turn, `O=S(=O)(Cc1ccccc1)Nc1ccc(Oc2ncccc2-c2ccnc(NC34CNCC3C4)n2)c(F)c1F` (single isomer, unassigned) [Compound 186, N-(4-((3-(2-(3-Azabicyclo[3.1.0]hexan-5-ylamino)pyrimidin-4-yl)-2-pyridyl)oxy)-2,3-difluoro-phenyl)-1-phenyl-methanesulfonamide] came in with an IC50 of 20 nM.

Regarding `CC(C)(F)C1CNCC(Nc2nccc(-c3cccnc3Oc3cc(F)c(NS(=O)(=O)Cc4ccccc4)c(F)c3F)n2)C1` (single isomer, unassigned) [Compound 336, 1-Phenyl-N-(2,3,6-trifluoro-4-((3-(2-((5-(2-fluoropropan-2-yl)piperidin-3-yl)amino)pyrimidin-4-yl)pyridin-2-yl)oxy)phenyl)methanesulfonamide hydrochloride], the IC50 amounted to 0.42 nM.

`O=S(=O)(Cc1ccccc1)Nc1ccc(Oc2ncccc2-c2ccnc(N[C@H]3CCCNC3)n2)cc1F` [Compound 106, (S)-N-(2-fluoro-4-((3-(2-(piperidin-3-ylamino)pyrimidin-4-yl)pyridin-2-yl)oxy)phenyl)-1-phenylmethanesulfonamide hydrochloride] registered a half-inhibitory concentration (IC50) of 5.7 nM.

Take `Cc1cc(NC(=O)C2CC2)cc(F)c1Oc1ncccc1-c1ccnc(N[C@H]2CC[C@H](N)CC2)n1` [Compound 120, N-(4-((3-(2-(((1r,4r)-4-aminocyclohexyl)amino)pyrimidin-4-yl)pyridin-2-yl)oxy)-3-fluoro-5-methylphenyl)cyclopropanecarboxamide hydrochloride]: the IC50 worked out at 110 nM.
